Measured values published in patent US10300155B2, “Alpha-synuclein ligands” (Washington University, priority 2015, dated 2019).
Where “and” joins values, the source holds several entries; their conditions need not be identical. Identical values can stand only once.

Columns and labels:
Aβ fibrils [1] = target: T1, Aβ fibrils (Homo sapiens, UniProt P05067); assay: ThT competitive assay for Aβ fibrils (Table 2); type: binding; design: made in house; host or cells: E. coli; settings: for EC50: Aβ fibrils
T1 sequence (P05067 672-713 limits assumed): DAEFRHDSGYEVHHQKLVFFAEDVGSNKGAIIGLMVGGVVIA
Procedure: […] recombinant protein was produced in E. coli. Additional preparation was performed in a similar fashion to Example 115. […] The inhibitor that binds with highest affinity to Aβ fibrils has the lowest dissociation constant (Ki).

α-synuclein fibrils [2] = target: T2, α-synuclein fibrils (Homo sapiens, UniProt P37840); assay: ThT competitive assay for α-synuclein fibrils (Table 1); type: binding; settings: for EC50: α-synuclein fibrils
T2 construct: made in house; host or cells: E. coli BL21(DE3)RIL
How it was run: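 Competition against ThT binding to recombinant (E. coli) human α-synuclein fibrils, pelleted from a 72 hour fibril reaction and quantified by BCA. Mixtures incubated 60 minutes at room temperature with shaking; ThT fluorescence read. Ki derived from EC50 via Cheng-Prusoff using the ThT saturation Kd.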

tau fibrils [3] = target: T3, tau fibrils (Homo sapiens, UniProt P10636); assay: ThT competitive assay for tau fibrils (Table 3); type: binding; design: made in house; host or cells: E. coli; settings: for EC50: tau fibrils
Procedure: Tau fibril recombinant protein was produced in E. coli. Additional preparation was performed in a similar fashion to Example 115.
Target sequence in this assay (P10636 560-692 limits assumed): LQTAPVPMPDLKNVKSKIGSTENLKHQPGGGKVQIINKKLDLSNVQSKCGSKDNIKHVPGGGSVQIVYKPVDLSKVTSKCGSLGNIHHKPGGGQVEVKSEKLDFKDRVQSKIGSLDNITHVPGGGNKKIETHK

AD Tissue = assay: Radioligand saturation binding, AD postmortem brain tissue; design: species or system human; settings: brain tissue homogenate
α-synuclein fibrils [4] = target: T2, α-synuclein fibrils; assay: Radioligand binding assay with α-synuclein fibrils (Table 8)
α-synuclein fibrils [5] = target: T2, α-synuclein fibrils; assay: ThT saturation binding to α-synuclein fibrils (Example 116); settings: saturation curve
Procedure: The mixture was incubated at room temperature for 1 hour on the shaking plate. The reaction plate was scanned by the excitation wavelength range from 430 to 465 nm. The maximum excitation wavelength (λex) was determined according to the fluorescent intensity-excitation wavelength curve. At (λex), the emission wavelength was scanned to get maximum emission wavelength (λem).
The mixture was incubated at room temperature for 1 hour on the shaking plate. The fluorescent intensity for each cell was measured by the fluorescence reader at λex and λem.

Control Tissue = assay: Radioligand saturation binding, control postmortem brain tissue; design: species or system human; settings: brain tissue homogenate
Text: (§1) Brain tissue samples were selected from an autopsy case series of patients evaluated for parkinsonism by movement disorders specialists at the Movement Disorders Center of Washington University School of Medicine in St. Louis. The clinical diagnosis of idiopathic PD was based on modified United Kingdom Parkinson's Disease Society Brain Bank clinical diagnostic criteria with clear clinical response to levodopa [Hughes, A. J., et al, “Accuracy of clinical diagnosis of idiopathic Parkinson's disease: a clinico-pathological study of 100 cases,” 1992, J. Neurol. Neurosurg. Psychiatry, 55:181-184]. Dementia was determined by a movement disorders specialist based on clinical assessment of cognitive dysfunction sufficiently severe to impair activities of daily living, with further evaluation of cognitive impairment using the AD8 and Mini-Mental Status Exam (MMSE) [Galvin, J. E., et al., “The AD8: a brief informant interview to detect dementia,” 2005, Neurology 65:559-564; Folstein, M. F., et al., ““Mini-mental state”. A practical method for grading the cognitive state of patients for the clinician,” 1975, J. Psychiatr Res, 12:189-198]. LB stage was assessed at autopsy using a PD staging scale (range: 0, 1-6) [Braak, H., et al., “Stages in the development of Parkinson's disease-related pathology,” 2004, Cell Tissue Res., 318:121-134]. PD cases were selected based on a clinical diagnosis of PD plus dementia, Braak LB stage 5-6 pathology, and the absence of significant Aβ or tau pathology determined by immunohistochemistry. Control cases were selected based on the absence of α-synuclein, Aβ and tau pathology. Samples were used from both male and female subjects.
(§2) Grey matter was isolated from frozen postmortem frontal cortex tissue by dissection with a scalpel. To prepare insoluble fractions, dissected tissue was sequentially homogenized in four buffers (3 ml/g wet weight of tissue) with glass Dounce tissue grinders (Kimble): 1) High salt (HS) buffer: 50 mM Tris-HCl pH 7.5, 750 mM NaCl, 5 mM EDTA; 2) HS buffer with 1% Triton X-100; 3) HS buffer with 1% Triton X-100 and 1 M sucrose; and 4) phosphate buffered saline (PBS). Homogenates were centrifuged at 100,000×g after each homogenization step and the pellet was resuspended and homogenized in the next buffer in the sequence. For comparison in initial binding studies, crude tissue homogenates were also prepared by homogenization of tissue in only PBS. […]
(§3) Saturation binding assays combine binding substrate and varying radioligand concentrations, with or without the addition of a high concentration (50-100 times the estimated Kd) of a competitor compound to determine nonspecific binding. […] Specific binding is determined by subtracting nonspecific binding from total binding. […]

PD Tissue = assay: Radioligand saturation binding, PD postmortem brain tissue; design: species or system human; settings: brain tissue homogenate
Text: as §1, §2, §3

tau fibrils [6] = target: T3, tau fibrils; assay: Radioligand binding assay with tau fibrils (Table 8); design: made in house; host or cells: E. coli BL21(DE3)RIL
Target sequence in this assay (P10636 560-692): as the sequence (P10636 560-692 limits assumed) above

Aβ fibrils [7] = target: T1, Aβ fibrils; assay: Thioflavin T competition assay (Example 130, Table 9), Aβ fibrils; type: binding; design: Synthetic Aβ42 peptide (1 mg) (Bachem, Torrance, Calif.); purchased Bachem, Torrance, Calif; host or cells: synthetic peptide
Procedure: An additional 925 μl of mQ-H2O was added. […] Fibril formation was confirmed by ThioT fluorescence.
(§4) Competition assays used a fixed concentration of α-syn, Aβ, or tau fibrils (1 μM), consisting of 3 μM, 50 nM and 4 μM of ThioflavinT respectively. […] To optimize the determination of selectivity, assays for all three fibril species were set up in parallel using a common set of intermediate compound dilutions for each analog. Reactions were incubated at room temperature for 1.5 h before quantifying bound ligand as described above for the saturation binding assay. […] All data points were performed in triplicate. Nonspecific fluorescence was measured in parallel reactions containing ThioT plus each concentration of competitor but no fibrils, and these measurements were subtracted from the reactions with fibrils to yield fibril-specific fluorescence. Data were analyzed using Graphpad. Prism software (version 4.0) to obtain EC50 values by fitting the data to the equation Y=bottom+(top-bottom)/(1+10^(x−log EC50)).

Aβ1-42 fibrils = target: T4, Aβ1-42 fibrils (Homo sapiens, UniProt P05067); assay: Radioligand binding assay with Aβ1-42 fibrils (Table 8)
T4 construct: Synthetic Aβ42 peptide (1 mg) (Bachem, Torrance, Calif.); purchased Bachem, Torrance, Calif; host or cells: synthetic peptide
T4 sequence (P05067 672-713 limits assumed): as the sequence (P05067 672-713 limits assumed) above
Procedure: Synthetic Aβ42 peptide (1 mg) (Bachem, Torrance, Calif.) was first dissolved in 50 μl DMSO. An additional 925 μl of mQ-H2O was added. Finally, 25 μl 1M Tris-HCl pH 7.6 was added to bring the final peptide concentration to 222 μM (1 mg/ml) [16]. The dissolved peptide was incubated for 30 h at 37° C. with shaking at 1000 rpm in an Eppendorf Thermomixer. Fibril formation was confirmed by ThioT fluorescence. To determine the concentration of fibrils, the fibril reaction mix was centrifuged at 15,000×g for 15 min to separate fibrils from monomer. The concentration of Aβ monomer in the supernatant was determined in a BCA protein assay using a BSA standard curve that contained DMSO at a percentage equivalent to the samples. […]
A fixed concentration (1 μM) of α-syn, Aβ, or tau fibrils were incubated for 2 h at 37° C. with increasing concentrations of ThioT in 30 mM Tris-HCl pH 7.4, 0.1% BSA in a reaction volume of 150 μl. Nonspecific binding was determined in a duplicate set of binding reactions containing the same concentration of ThioT with no fibrils. Fluorescence was determined in a Biotek plate reader using a 440/30 excitation filter and a 485/20 emission filter. […] The dissociation constant (Kd) and the maximal number of binding sites (Bmax) values were determined by fitting the data to the equation Y=Bmax*X/(X+Kd) by nonlinear regression using Graphpad Prism software (version 4.0).

α-synuclein fibrils [8] = target: T2, α-synuclein fibrils; assay: Thioflavin T competition assay (Example 130, Table 9), α-synuclein fibrils; type: binding
Procedure: Freshly transformed BL21 colonies were inoculated into 2 L baffled flasks containing 250 ml sterilized TB (1.2% bactotryptone, 2.4% yeast extract, 0.4% glycerol, 0.17 M KH2PO4, 0.72 M K2HPO4) with 50 μg/ml ampicillin, and incubated overnight at 37° C. with shaking.
as §4

tau fibrils [9] = target: T3, tau fibrils; assay: Thioflavin T competition assay (Example 130, Table 9), tau fibrils; type: binding; design: made in house; host or cells: E. coli BL21(DE3)RIL
Procedure: Recombinant tau protein was produced in E. coli.
as §4
Target sequence in this assay (P10636 560-692): as the sequence (P10636 560-692 limits assumed) above

[10] = average, read-out: EC50(nM) EC50 (avg)
[11] = individual determinations, read-out: EC50(nM) EC50
[12] = average, read-out: Ki (nM) Aβ (avg)
[13] = individual determinations, read-out: Ki (nM) Aβ
[14] = average, read-out: Ki (nM) α-syn (avg)
[15] = individual determinations, read-out: Ki (nM) α-syn
[16] = average, read-out: EC50 (nM) EC50 (avg)
[17] = individual determinations, read-out: EC50 (nM) EC50
[18] = average, read-out: Ki (nM) Tau (avg)
[19] = individual determinations, read-out: Ki (nM) Tau
[20] = average, read-out: EC50m (nM) EC50 (avg)
[21] = individual determinations, read-out: EC50m (nM) EC50

| Structure (SMILES) | EC50 (Aβ fibrils [1]; [10]) [nM] | EC50 (Aβ fibrils [1]; [11]) | Ki (Aβ fibrils [1]; [12]) [nM] | Ki (Aβ fibrils [1]; [13]) | Ki (α-synuclein fibrils [2]; [14]) [nM] | Ki (α-synuclein fibrils [2]; [15]) | EC50 (α-synuclein fibrils [2]; [16]) [nM] | EC50 (α-synuclein fibrils [2]; [17]) | Ki (tau fibrils [3]; [18]) [nM] | EC50 (tau fibrils [3]; [20]) [nM] | EC50 (tau fibrils [3]; [21]) [nM] | other results |
| --- | --- | --- | --- | --- | --- | --- | --- | --- | --- | --- | --- | --- |
| COc1ccc(/C=C/c2ccco2)cc1 [TZ-34-24] | 2280 | 2560 nM and 2000 nM | 888 | 961 nM and 815 nM | 345 | 610 nM and 163 nM and 262 nM | 902 | 1590 nM and 426 nM and 686 nM |  |  |  |  |
| COc1ccc(/C=C/c2cccs2)cc1 [TZ-34-26] | 6660 | 6660 nM | 2500 | 2500 nM | 176 | 51.3 nM and 283 nM and 126 nM and 291 nM and 82 nM and 221 nM | 460 | 134 nM and 739 nM and 329 nM and 762 nM and 214 nM and 580 nM | 1370 | 3350 | 3350 | Ki (tau fibrils [3]; [19]): 1370 nM |
| COc1ccc(/C=C/c2ccc(-c3cnc(C)s3)s2)cc1 [TZ-34-43] | 854 | 854 nM | 320 | 320 nM | 134 |  | 351 |  | 512 | 1260 | 1260 | Ki (tau fibrils [3]; [19]): 512 nM |
| COc1ccc2nc(/C=C/c3ccnc(OC)c3)ccc2c1 [TZ-36-28-2T] | 715 | 715 nM | 268 | 268 nM | 51.8 | 37 nM and 40 nM and 87 nM and 66 nM and 29 nM | 136 | 98 nM and 105 nM and 226 nM and 174 nM and 76 nM | 34 | 82 | 82 | Kd (AD Tissue): 13 nM; Kd (α-synuclein fibrils [4]): 30 nM |
| Cc1ccc2c(c1)sc(-c1ccc(N(C)C)cc1)[n+]2C [ThT, Thioflavin T] |  |  |  |  |  |  |  |  |  |  |  | Bmax for ThioT binding to fibrils (α-synuclein fibrils [5]): 5672 afu |
| COc1ccc2nc(/C=C/c3ccnc(OC)c3)ccc2c1 [[^11C]TZ-36-28-2T] |  |  |  |  |  |  |  |  |  |  |  | Control Tissue Bmax (pmol/nmol) (Control Tissue): 1081 pmol/nmol; Kd (Control Tissue): 158 nM; AD Tissue Bmax (pmol/nmol) (AD Tissue): 4316 pmol/nmol; α-synuclein Bmax (pmol/nmol) (α-synuclein fibrils [4]): 51 pmol/nmol; Kd (PD Tissue): 55 nM; PD Tissue Bmax (pmol/nmol) (PD Tissue): 367 pmol/nmol |
| COc1cc(/C=C/c2ccc3cc(OCCF)ccc3n2)ccn1 [[^18F]TZ-36-148] |  |  |  |  |  |  |  |  |  |  |  | Kd (tau fibrils [6]): 51 nM; Kd (Control Tissue): 477 nM; Kd (AD Tissue): 83 nM; EC50 (Aβ fibrils [7]; average, read-out: Aβ-fibrils EC50 (avg)): 448 nM; Ki (Aβ fibrils [7]; average, read-out: Aβ-fibrils Ki (avg)): 168 nM; EC50 (Aβ fibrils [7]; individual determinations, read-out: Aβ-fibrils EC50): 435 nM and 462 nM; Ki (Aβ fibrils [7]; individual determinations, read-out: Aβ-fibrils Ki): 163 nM and 173 nM; Kd (Aβ1-42 fibrils): 98 nM; EC50 (α-synuclein fibrils [8]; average, read-out: α-synuclein EC50 (avg)): 46.8 nM; Ki (α-synuclein fibrils [8]; average, read-out: α-synuclein Ki (avg)): 18 nM; EC50 (α-synuclein fibrils [8]; individual determinations, read-out: α-synuclein EC50): 44.5 nM and 49 nM; Ki (α-synuclein fibrils [8]; individual determinations, read-out: α-synuclein Ki): 17 nM and 19 nM; Kd (α-synuclein fibrils [4]): 90 nM; Kd (PD Tissue): 167 nM; EC50 (tau fibrils [9]; average, read-out: Tau fibrils EC50 (avg)): 278 nM; Ki (tau fibrils [9]; individual determinations): 124 nM and 102 nM; EC50 (tau fibrils [9]; individual determinations, read-out: Tau fibrils EC50): 305 nM and 251 nM |
| COc1cc(/C=C/c2ccc3cc(OCC[18F])ccc3n2)ccn1 [[^18F]TZ-36-148] |  |  |  |  |  |  |  |  |  |  |  | Tau fibrils Bmax (pmol/nmol) (tau fibrils [6]): 58 pmol/nmol; Control Tissue Bmax (pmol/nmol) (Control Tissue): 604 pmol/nmol; AD Tissue Bmax (pmol/nmol) (AD Tissue): 12945 pmol/nmol; Aβ1-42 fibrils Bmax (pmol/nmol) (Aβ1-42 fibrils): 28 pmol/nmol; α-synuclein Bmax (pmol/nmol) (α-synuclein fibrils [4]): 29 pmol/nmol; PD Tissue Bmax (pmol/nmol) (PD Tissue): 1510 pmol/nmol |
